In publication PMC2841147, “The inhaled phosphodiesterase 4 inhibitor GSK256066 reduces allergen challenge responses in asthma” (Respiratory Research, 2010):
Where two headings read alike, the source gives them in different places.

How the values were obtained:
patients with COPD = tested on: patients with COPD; parameters: method as in PMID 19213793; details: inhaled, after 6 weeks of treatment; cited from earlier work
[1] = tested on: steroid naive atopic asthmatics; test: Inhaled allergen challenge (EAR and LAR) after 7 days treatment; type: in vivo, human; details: inhaled 87.5 μg once daily for 7 days
Protocol: (§1) This was a two centre, double-blind, randomised, placebo controlled, cross-over study. Eligible subjects were randomised to receive GSK256066 87.5 μg or matching placebo using an Accuhaler™ once daily for 7 days - see Fig 1. The washout period was 14 - 21 days between treatment periods. Dosing was performed under supervision at the sites on Day 1 and Day 7. On days 2-6 subjects were instructed to take the study medication at the same time of day, and were required to complete a diary card to document the time that medication was taken. Heart rate, blood pressure, ECGs, FEV1 and exhaled nitric oxide (FeNO) were measured pre-dose on days 1 and 7, and at 1 hr post-dose. On day 7, an inhaled allergen challenge was subsequently performed after the 1 hour post-dose FEV1 and FeNO measurements. Methacholine challenge was then performed at 24 hours post allergen challenge. Adverse events and beta agonist use were monitored throughout the study with the aid of diary cards.
Bronchial challenges were performed as we have previously described using a Mefar Dosimeter (Mefar-Bologna). Allergen for skin prick tests (Soluprick SQ, Alk Abelló (UK) Ltd) was stored at 4°C; each subject was assessed for sensitivity to house dust mite, cat, grass pollen, and positive and negative controls. The allergen for inhalation was selected according to the largest skin test wheal (positive >3 mm) and clinical history. Fresh solutions of allergen were made up in 0.9% saline in doubling concentrations from 250 SQ-U/ml to 32 000 SQ-U/ml. At screening, incremental doses of allergen were inhaled until an early asthmatic response (EAR) was observed, defined as a fall in FEV1 of ≥ 20% from the post saline value, on at least one occasion, between 5 and 30 minutes after the final concentration of allergen. The late asthmatic response (LAR) was defined as a fall in FEV1 of ≥ 15% from the post saline value, on at least three occasions, two of which must be consecutive, between 4 and 10 hours after the final concentration of allergen. During the treatment periods, the total dose of allergen required to cause an EAR and LAR was administered as a single bolus dose.
Minimum LAR was derived as the minimum FEV1 value over 4-10 hrs post allergen challenge. Minimum EAR was derived as the minimum FEV1 over 0-2 hrs post allergen challenge. Weighted mean LAR and EAR endpoints were derived by calculating the AUC over the relevant time interval using the linear trapezoidal rule and dividing by the time interval. […] Day 7 FEV1 data (pre-dose and 1 h post-dose) were also analysed using a mixed effects model, adjusting for the fixed effects treatment, period and Day 1 pre-dose FEV1 and the random effect subject. […]

PDE4 = details: cited from earlier work
[2] = tested on: steroid naive atopic asthmatics; test: Methacholine challenge 24 hours post allergen challenge; type: in vivo, human
Protocol: as §1, with “cards. […]” for “cards.”
Minimum LAR was derived as the minimum FEV1 value over 4-10 hrs post allergen challenge. […] Day 7 FEV1 data (pre-dose and 1 h post-dose) were also analysed using a mixed effects model, adjusting for the fixed effects treatment, period and Day 1 pre-dose FEV1 and the random effect subject. […] FeNO change from baseline ratio at all time points were analysed following a loge-transformation to compare GSK256066 with placebo. […]

[3] = tested on: steroid naive atopic asthmatics; test: Safety and tolerability (adverse events); type: in vivo, human; details: inhaled 87.5 mcg once per day for 7 days
Protocol: as §1

[4] = tested on: steroid naive atopic asthmatics; test: Lung function (FEV1) pre-dose and 1 hr post-dose; type: in vivo, human; details: for FEV1: mean; for FEV1 adjusted treatment difference GSK256066 vs placebo: adjusted mean (95% confidence intervals)
Protocol: as §1
(§2) Minimum LAR was derived as the minimum FEV1 value over 4-10 hrs post allergen challenge. Minimum EAR was derived as the minimum FEV1 over 0-2 hrs post allergen challenge. Weighted mean LAR and EAR endpoints were derived by calculating the AUC over the relevant time interval using the linear trapezoidal rule and dividing by the time interval. The sample size was based on a power calculation using our previous allergen challenge data; in order to detect a 50% attenuation of the minimum LAR, with 90% power at the two-sided 5% significance level, 23 evaluable were required. Statistical analysis was performed on each of the absolute change from baseline LAR and EAR endpoints to compare GSK256066 with placebo. A mixed effects model was fitted with the factors treatment, period and Day 7 post-saline FEV1 as fixed effects and subject as a random effect. Absolute change from post-saline FEV1 data over planned relative time were obtained from a repeated measures statistical analysis, adjusting for the terms of period, treatment group, period-level post-saline baseline, subject-level post-saline baseline, planned relative time, treatment group by planned relative time interaction and period-level post-saline baseline by planned relative time interaction as fixed effects and subject as a random effect. Day 7 FEV1 data (pre-dose and 1 h post-dose) were also analysed using a mixed effects model, adjusting for the fixed effects treatment, period and Day 1 pre-dose FEV1 and the random effect subject. Statistical analysis was performed on the log2-transformed values of the provocative concentration of methacholine required to produce a 20% reduction in FEV1 (PC20) to compare GSK256066 with placebo. A mixed effects model was fitted with the factors treatment and period treated as fixed effects and subject as a random effect. FeNO change from baseline ratio at all time points were analysed following a loge-transformation to compare GSK256066 with placebo. A mixed effects model was fitted with the fixed effects period, treatment group, subject-level loge-transformed baseline, period-level loge-transformed baseline, planned relative time, treatment group by planned relative time interaction term and period-level loge-transformed baseline by planned relative time interaction term and the random effect subject.

[5] = tested on: steroid naive atopic asthmatics; test: Exhaled nitric oxide (FeNO); type: in vivo, human; details: for Exhaled nitric oxide: mean
Protocol: as §1
FeNO was measured using the Ecomedics AG analyser CLD 88 at a flow of 50 ml/s. Three acceptable readings were recorded from each subject and the mean was used for analysis.
as §2, with “Statistical analysis was performed on the log2-transformed values of the provocative concentration of methacholine required to produce a 20% reduction in FEV1 (PC20) to compare GSK256066 with placebo. A mixed effects model was fitted with the factors treatment and period treated as fixed effects and subject as a random effect.” left out, “A mixed effects model was fitted with the fixed effects period, treatment group, subject-level loge-transformed baseline, period-level loge-transformed baseline, planned relative time, treatment group by planned relative time interaction term and period-level loge-transformed baseline by planned relative time interaction term and the random effect subject.” left out

[6] = Plasma pharmacokinetics after inhalation (HPLC/MS/MS); type: in vivo, human; details: for Tlast / Tmax: median (range); for AUC(0-t): 87.5 ug
Protocol: On days 1 and 7, blood samples were collected at pre-dose, 10 min, 30 min, 45 min and 1, 2, 3, 4, 6, 8, 10, 11, 12 and 24 hrs post dose for measurement of the levels of GSK256066 in plasma. […] These pharmacokinetic analyses were performed by protein precipitation, followed by HPLC/MS/MS. The lower limit of quantification (LLOQ) for GSK256066 and GSK614917 was 5 pg/mL, with an upper limit of quantification of 2000 pg/mL
Values for the following pharmacokinetic were estimated directly from raw plasma concentration data: maximum plasma concentration (Cmax), time of maximum observed concentration (Tmax), and time of the last observable concentration (Tlast). Area under the plasma concentration-time curve from time zero to Tlast (AUC (0-t)) was estimated for subjects with at least 3 consecutive observable concentration values with the log up/linear down trapezoidal method using Winnonlin professional version 5.2 (Pharsight Corporation, Cary, NC, USA).

asthmatic subjects = tested on: asthmatic subjects; parameters: method as in PMID 16083782; details: orally administered; cited from earlier work
[7] = parameters: method as in PMID 17192499; details: cited from earlier work

Which “Effect on FEV1” value (patients with COPD) does the source give for `Cc1ccc(O)c(C(=O)N[C@H]2CC[C@@H](NC(=O)c3cc(F)cnc3Oc3ccc(F)c(F)c3)CC2)c1` [UK-500,001] here?
The value was “no effect”.

Which “EAR: inhibition of the fall in weighted mean FEV1 compared to placebo” value ([1]; 0-2 hrs post allergen, p = 0.014) does the source give for `COc1cccc(Nc2c(C(N)=O)cnc3c(C)cc(S(=O)(=O)c4cccc(C(=O)N(C)C)c4)cc23)c1` [GSK256066] here?
The value was 57.2%.

And the “LAR: attenuation of the fall in weighted mean FEV1 compared to placebo” value ([1]; 4-10 hrs post allergen, p = 0.005)?
Its value is 34.3%.

And the “EAR: inhibition of the fall in minimum FEV1 compared to placebo” value ([1]; minimum FEV1 0-2 hrs post allergen, p = 0.014)?
Its value is 40.9%.

What about the “LAR: attenuation of the fall in minimum FEV1 compared to placebo” value ([1]; minimum FEV1 4-10 hrs post allergen, p = 0.007) of the same molecule?
Its value is 26.2%.

What about the “Affinity and binding mode at PDE4” value (PDE4) of the same molecule?
The value was “very high affinity, slow- and tight-binding inhibitor”.

What about the “Selectivity for PDE4 over other PDEs such as 1, 2, 3, 5, 6 and 7” value (PDE4) of the same molecule?
Its value is “highly selective”.

What about the “Methacholine PC20 doubling dose difference vs placebo, geometric mean (95% CI)” value [2] of the same molecule?
Its value is -0.31 (-1.18 to 0.57).

What about the “Methacholine PC20” value ([2]; after 7 days treatment, placebo 0.39) of the same molecule?
The value was 0.31 mg/mL.

And the “Nausea and/or gastro-intestinal side effects” value [3]?
Its value is “lack of nausea and/or gastro-intestinal side effects”.

What about the “Tolerability / adverse effects” value [3] of the same molecule?
Its value is “well tolerated”.

What about the FEV1 ([4]; Day 1 Pre-dose) of the same molecule?
Its FEV1 is 3.29 (2.88 to 3.69) L.

And the “FEV1 adjusted treatment difference GSK256066 vs placebo” value ([4]; Day 7 1 hr post-dose)?
The value was 0.09 (-0.08 to 0.27) L.

What about the FEV1 ([4]; Day 7 1 hr post-dose) of the same molecule?
The FEV1 was 3.47 (3.04 to 3.90) L.

What about the “FEV1 adjusted treatment difference GSK256066 vs placebo” value ([4]; Day 7 Pre-dose) of the same molecule?
Its value is 0.09 (-0.03 to 0.20) L.

What about the FEV1 ([4]; Day 7 Pre-dose) of the same molecule?
Its FEV1 is 3.36 (2.94 to 3.79) L.

And the Exhaled nitric oxide ([5]; Day 1 Pre-dose)?
The Exhaled nitric oxide was 39.9 (31.0 to 51.3) ppb.

And the “Exhaled nitric oxide adjusted treatment ratio GSK256066 vs placebo” value ([5]; Day 7 1 hr post-dose, adjusted mean (95% confidence intervals))?
Its value is 1.03 (0.88 to 1.20).

What about the Exhaled nitric oxide ([5]; Day 7 1 hr post-dose) of the same molecule?
Its Exhaled nitric oxide is 36.1 (28.1 to 46.3) ppb.

And the Exhaled nitric oxide ([5]; Day 7 Pre-dose)?
The Exhaled nitric oxide was 34.7 (26.7 to 45.0) ppb.

What about the “Subjects with plasma concentrations above the LLOQ” value ([6]; Day 1, LLOQ 5 pg/mL) of the same molecule?
Its value is 18 out of 22.

And the Cmax ([6]; Day 1, inhaled 87.5 μg, plasma, geometric mean (CV%), N = 18)?
The Cmax was 18.3 (68) Pg/mL.

And the Tlast ([6]; Day 1)?
Its Tlast is 3.0 (0.5-6.0) h.

What about the “Subjects with drug levels below the LLOQ after 4 hrs post dose” value ([6]; Day 1, of the 22 subjects, LLOQ 5 pg/mL) of the same molecule?
The value was 18 subjects.

And the “Subjects with drug levels below the LLOQ after 4 hrs post dose” value ([6]; Day 7, LLOQ 5 pg/mL)?
The value was 10 of the 19.

And the “Subjects with levels above the LLOQ after 12 hrs” value ([6]; Day 7, LLOQ 5 pg/mL)?
Its value is 1 subject.

What about the “Subjects with plasma concentrations above the LLOQ” value ([6]; Day 7, LLOQ 5 pg/mL) of the same molecule?
The value was 17 out of 19.

What about the Cmax ([6]; Day 7, inhaled 87.5 μg once daily, plasma, geometric mean (CV%), n = 17) of the same molecule?
Its Cmax is 17.3 (63) Pg/mL.

What about the Tlast ([6]; Day 7) of the same molecule?
The Tlast was 4.0 (1.0-24) h.

What about the Tmax ([6]; Day 7) of the same molecule?
The Tmax was 1.0 (0.17-11.0) h.

What about the “Tlast range in this study” value ([6]; days 1 and 7) of the same molecule?
The value was 0.5 to 24 h.

And the AUC(0-t) ([6]; human, plasma, inhaled or intranasal, Day 1, inhaled 87.5 μg, plasma, geometric mean (CV%), N = 18)?
Its AUC(0-t) is 0.0368 ng·h/mL.

And the AUC(0-t) ([6]; human, plasma, inhaled or intranasal, Day 7, inhaled 87.5 μg once daily, plasma, geometric mean (CV%), n = 17)?
Its AUC(0-t) is 0.0648 ng·h/mL.

What about the Cmax ([6]; human, plasma, inhaled or intranasal, 87.5 μg, on both days 1 and 7, inhaled, read-out: Mean Cmax) of the same molecule?
The Cmax was under 0.02 ng/mL.

And the Tmax ([6]; human, plasma, inhaled, 87.5 μg, Day 1, read-out: Tmax)?
Its Tmax is 1 h.

With `O=C(Nc1c(Cl)cncc1Cl)c1ccc(OC(F)F)c(OCC2CC2)c1` [roflumilast] as the molecule, how does the “Inhibition of the maximal fall in the EAR” value (asthmatic subjects) read?
The value was 14%.

And the “Inhibition of the maximal fall in the LAR” value (asthmatic subjects)?
The value was 33%.

What about the “Mean Cmax” value ([7]; administered orally) of the same molecule?
The value was “over 2,000 pg/ml”.

For `O=C(Nc1c(Cl)c[n+]([O-])cc1Cl)c1ccc(OC(F)F)c(OCC2CC2)c1` [roflumilast N-Oxide], which “Plasma levels of the active metabolite compared with roflumilast Cmax” value ([7]; after oral roflumilast) is on record?
Its value is “even higher”.
